Measurements as given in the supplement of paper PMC10477900.
Counter-ions that a name gives are not always drawn.

Legend:
[1] = test system: HCT116; details: 72 h
Method: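 HCT116 control and MTA1-KO (CRISPR) HCT116 cells were seeded in 384-well plates (800 cells/well), treated 16 h later with 237 metabolism-related anticancer drugs at five doses (10 uM, 2 uM, 400 nM, 80 nM, 16 nM) for 72 h, two replicates; viability by CCK8. Values are % inhibition of viability relative to untreated cells, plus fitted IC50.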

[2] = test system: HCT116; test: viability inhibition vs untreated; higher = more cytotoxic; details: 72 h

SMILES	IC50 ([1]; genotype: MTA1-KO)	IC50 ([1]; genotype: control)	viability inhibition ([2]; genotype: MTA1-KO, 16 nM)	viability inhibition ([2]; genotype: MTA1-KO, 80 nM)	viability inhibition ([2]; genotype: MTA1-KO, 400 nM)	viability inhibition ([2]; genotype: MTA1-KO, 2000 nM)	viability inhibition ([2]; genotype: MTA1-KO, 10000 nM)	viability inhibition ([2]; genotype: control, 16 nM)	viability inhibition ([2]; genotype: control, 80 nM)	viability inhibition ([2]; genotype: control, 400 nM)	viability inhibition ([2]; genotype: control, 2000 nM)	viability inhibition ([2]; genotype: control, 10000 nM)
OC(CNc1ccccc1)Cn1c2ccc(Br)cc2c2cc(Br)ccc21 (stereo not drawn) [P7C3]	> 10 µM	> 10 µM	-3.09%	-13%	-15.4%	-15.3%	6.71%	10.1%	-2.92%	4.14%	-4.2%	7.54%
CC(C)n1nc(-c2ccc3oc(N)nc3c2)c2c(N)ncnc21 [INK 128]	1.04 µM	< 0.016 µM	-1.98%	6.98%	33.7%	44.4%	70%	52.9%	40.8%	50.1%	52.3%	76.6%
CCCCCCCCCCC[C@@H](C[C@@H]1OC(=O)[C@H]1CCCCCC)OC(=O)[C@H](CC(C)C)NC=O [Orlistat]	> 10 µM	> 10 µM	-6.57%	-2.27%	-2.16%	-13.4%	15.7%	4.58%	-13.3%	-7.69%	-2.81%	37%
Nc1nonc1C(=Nc1ccc(F)c(Cl)c1)NO	> 10 µM	> 10 µM	11.1%	13.3%	16.9%	23.6%	36.3%	10.4%	19%	-4.25%	11%	9.01%
N#CCCCSC(=N)N [Kevetrin hydrochloride]	2.38 µM	> 10 µM	12.4%	15%	12.2%	33.3%	57.5%	16.1%	19.7%	23%	-4.7%	23.9%
CCN1C(=O)CNc2ncc(-c3ccc(-c4ncn[nH]4)nc3C)nc21 [CC115]	2.13 µM	4.96 µM	5.59%	-19.9%	-8.79%	27.2%	81.2%	-13.9%	-10.3%	-8.79%	7.12%	74.9%
CCc1nc(N)nc(N)c1-c1ccc(Cl)cc1 [Pyrimethamine]	6.54 µM	4.89 µM	-6.42%	-11.6%	-0.866%	10.9%	60.5%	2.52%	7.55%	13.3%	20.1%	82.3%
Cc1ccc(Oc2nc3cc(-c4ccc(-c5ccccc5)cc4)c(Cl)cc3[nH]2)cc1C(=O)O [MK3903]	5.67 µM	7.34 µM	-12.7%	-22.9%	-10.6%	0.304%	68%	11.1%	8.79%	24.8%	19.4%	59.8%
O=[N+]([O-])c1ccc(Nc2nc(N3CCOCC3)nc(N3CCOCC3)n2)cc1 [MHY1485]	> 10 µM	4.59 µM	7.65%	14.4%	13.3%	8.16%	45.5%	-9.75%	7.66%	14.9%	23.1%	74.8%
CC1=C(CSC(=S)N2CCCCC2)C(=O)c2ccccc2C1=O [PKM2 inhibitor]	0.861 µM	> 10 µM	-2.72%	-15.5%	-11%	79.7%	65.9%	-0.424%	-10.4%	-5.1%	5.17%	33.3%
CCNC(=O)Nc1ccc(-c2nc(N3CCOC[C@@H]3C)c3c(n2)C(C)(C)S(=O)(=O)C3)cc1 [CZ415]	0.501 µM	0.552 µM	-6.27%	-12.8%	23.6%	61.9%	75.6%	-5.97%	12.9%	20.8%	61.7%	60.1%
Nc1ncnc2c1ncn2[C@@H]1O[C@H](COP(=O)(O)O)[C@@H](O)[C@H]1O [Adenosine 5'-monophosphate]	> 10 µM	> 10 µM	1.56%	3.02%	2%	-3.03%	4.43%	9.4%	14.9%	9.53%	10.4%	17.4%
CN1CCN(C(=O)/C=C/c2ccc([N+](=O)[O-])o2)CC1	> 10 µM	> 10 µM	-10.2%	-18.9%	-24%	-18.6%	19.7%	0.552%	-3.92%	-15.2%	-0.064%	11%
O=C(Nc1cccc(C(F)(F)F)c1)Nc1cc(S(=O)(=O)NC2CC2)ccc1-c1ccsc1 [AGI6780]	> 10 µM	> 10 µM	4.84%	-6.61%	9.84%	15.6%	49.9%	13.6%	18.2%	3.86%	16.8%	22.5%
NS(=O)(=O)c1cc2c(cc1Cl)NCNS2(=O)=O [Hydrochlorothiazide]	> 10 µM	> 10 µM	-4.21%	-3.92%	-3.75%	-5.89%	-2.82%	18.6%	15.8%	14.2%	-4.67%	13.5%
CN(Cc1ccccc1)c1ccc2cc(C(=O)O)c(=O)oc2c1 [7ACC2]	> 10 µM	0.373 µM	-27.3%	-0.988%	20.9%	24.6%	29%	15%	-0.73%	50.7%	64.6%	80.8%
CC(=O)Nc1nnc(S(N)(=O)=O)s1 [Acetazolamide]	> 10 µM	> 10 µM	-8.41%	-9.41%	-15.4%	-8.8%	6.99%	-4.74%	-13.5%	-4.54%	-3.32%	-0.433%
C[C@]12CC[C@H]3[C@@H](CC[C@@]45O[C@@H]4C(O)=C(C#N)C[C@]35C)[C@@H]1CC[C@@H]2O [Trilostane]	> 10 µM	> 10 µM	-17%	-18.6%	-14.1%	-30.8%	-28.2%	8.35%	7.91%	2.11%	-10.9%	-4.61%
COC1CCC(N2C(=O)CNc3ncc(-c4ccc(C(C)(C)O)nc4)nc32)CC1 (stereo not drawn) [CC223]	> 10 µM	> 10 µM	-8.46%	-17.5%	-1.64%	13.1%	22.1%	11.3%	-6.69%	-3.2%	-6.07%	35.3%
